Assay: Effect of temperature (and pH) on the stability of the solution (purity)
Type: physicochemical
Conditions: 7% solution in water

Q: Which “Purity(%) at day 0” value (pH 1.0, day 0) does the source give for `CCN(CC)CCOC(=O)COC(=O)Cc1c(C)n(C(=O)c2ccc(Cl)cc2)c2ccc(OC)cc12.Cl` here?
A: 98.1 ± 0.3%

Q: What about the “Purity(%) at day 21 (5° C.)” value (pH 1.0, day 21, 5° C.) of the same molecule?
A: 91.9 ± 0.3%

Q: What about the “Purity(%) at day 21 (25° C.)” value (pH 1.0, day 21, 25° C.) of the same molecule?
A: 67.3 ± 0.3%

Q: What about the “Purity(%) at day 21 (40° C.)” value (pH 1.0, day 21, 40° C.) of the same molecule?
A: 15.6 ± 0.3%

Q: And the “Purity (%) at day 21 (60° C.)” value (pH 1.0, day 21, 60° C.)?
A: 0%

Q: And the “Purity(%) at day 0” value (pH 2.0, day 0)?
A: 98.3 ± 0.3%

Q: And the “Purity(%) at day 21 (5° C.)” value (pH 2.0, day 21, 5° C.)?
A: 95.7 ± 0.2%

Q: What about the “Purity(%) at day 21 (25° C.)” value (pH 2.0, day 21, 25° C.) of the same molecule?
A: 82.2 ± 0.2%

Q: And the “Purity(%) at day 21 (40° C.)” value (pH 2.0, day 21, 40° C.)?
A: 26.7 ± 0.3%

Q: And the “Purity (%) at day 21 (60° C.)” value (pH 2.0, day 21, 60° C.)?
A: 0%

Q: What about the “Purity(%) at day 0” value (pH 3.0, day 0) of the same molecule?
A: 98.5 ± 0.2%

Q: What about the “Purity(%) at day 21 (5° C.)” value (pH 3.0, day 21, 5° C.) of the same molecule?
A: 98.0 ± 0.2%

Q: And the “Purity(%) at day 21 (25° C.)” value (pH 3.0, day 21, 25° C.)?
A: 93.0 ± 0.2%

Q: What about the “Purity(%) at day 21 (40° C.)” value (pH 3.0, day 21, 40° C.) of the same molecule?
A: 47.7 ± 0.3%

Q: What about the “Purity (%) at day 21 (60° C.)” value (pH 3.0, day 21, 60° C.) of the same molecule?
A: 0%

Q: And the “Purity(%) at day 0” value (pH 3.7, day 0)?
A: 98.7 ± 0.1%

Q: What about the “Purity(%) at day 21 (5° C.)” value (pH 3.7, day 21, 5° C.) of the same molecule?
A: 98.2 ± 0.1%

Q: And the “Purity(%) at day 21 (25° C.)” value (pH 3.7, day 21, 25° C.)?
A: 97.1 ± 0.1%

Q: And the “Purity(%) at day 21 (40° C.)” value (pH 3.7, day 21, 40° C.)?
A: 57.6 ± 0.2%

Q: What about the “Purity (%) at day 21 (60° C.)” value (pH 3.7, day 21, 60° C.) of the same molecule?
A: 13.9 ± 0.3%

Q: What about the “Purity(%) at day 0” value (pH 4.0, day 0) of the same molecule?
A: 98.7 ± 0.1%

Q: What about the “Purity(%) at day 21 (5° C.)” value (pH 4.0, day 21, 5° C.) of the same molecule?
A: 98.4 ± 0.1%

Q: What about the “Purity(%) at day 21 (25° C.)” value (pH 4.0, day 21, 25° C.) of the same molecule?
A: 97.4 ± 0.2%

Q: And the “Purity(%) at day 21 (40° C.)” value (pH 4.0, day 21, 40° C.)?
A: 68.7 ± 0.3%

Q: What about the “Purity (%) at day 21 (60° C.)” value (pH 4.0, day 21, 60° C.) of the same molecule?
A: 19.2 ± 0.3%

Q: And the “Purity(%) at day 0” value (pH 4.3, day 0)?
A: 98.8 ± 0.2%

Q: And the “Purity(%) at day 21 (5° C.)” value (pH 4.3, day 21, 5° C.)?
A: 98.5 ± 0.1%

Q: And the “Purity(%) at day 21 (25° C.)” value (pH 4.3, day 21, 25° C.)?
A: 97.5 ± 0.1%

Q: And the “Purity(%) at day 21 (40° C.)” value (pH 4.3, day 21, 40° C.)?
A: 68.6 ± 0.3%

Q: What about the “Purity (%) at day 21 (60° C.)” value (pH 4.3, day 21, 60° C.) of the same molecule?
A: 17.9 ± 0.2%

Q: And the “Purity(%) at day 0” value (pH 4.6, day 0)?
A: 98.8 ± 0.2%

Q: What about the “Purity(%) at day 21 (5° C.)” value (pH 4.6, day 21, 5° C.) of the same molecule?
A: 98.4 ± 0.2%

Q: And the “Purity(%) at day 21 (25° C.)” value (pH 4.6, day 21, 25° C.)?
A: 96.5 ± 0.2%

Q: What about the “Purity(%) at day 21 (40° C.)” value (pH 4.6, day 21, 40° C.) of the same molecule?
A: 53.7 ± 0.2%

Q: What about the “Purity (%) at day 21 (60° C.)” value (pH 4.6, day 21, 60° C.) of the same molecule?
A: 14.8 ± 0.3%

Q: And the “Purity(%) at day 0” value (pH 5.0, day 0)?
A: 98.6 ± 0.2%

Q: What about the “Purity(%) at day 21 (5° C.)” value (pH 5.0, day 21, 5° C.) of the same molecule?
A: 97.1 ± 0.2%

Q: And the “Purity(%) at day 21 (25° C.)” value (pH 5.0, day 21, 25° C.)?
A: 93.8 ± 0.2%

Q: And the “Purity(%) at day 21 (40° C.)” value (pH 5.0, day 21, 40° C.)?
A: 39.8 ± 0.3%

Q: What about the “Purity (%) at day 21 (60° C.)” value (pH 5.0, day 21, 60° C.) of the same molecule?
A: 3.2 ± 0.2%

Q: And the “Purity(%) at day 0” value (pH 6.0, day 0)?
A: 98.4 ± 0.2%

Q: And the “Purity(%) at day 21 (5° C.)” value (pH 6.0, day 21, 5° C.)?
A: 95.8 ± 0.2%

Q: And the “Purity(%) at day 21 (25° C.)” value (pH 6.0, day 21, 25° C.)?
A: 86.9 ± 0.2%

Q: And the “Purity(%) at day 21 (40° C.)” value (pH 6.0, day 21, 40° C.)?
A: 28.8 ± 0.2%

Q: What about the “Purity (%) at day 21 (60° C.)” value (pH 6.0, day 21, 60° C.) of the same molecule?
A: 0%

Q: And the “Purity(%) at day 0” value (pH 7.0, day 0)?
A: 98.1 ± 0.2%

Q: What about the “Purity(%) at day 21 (5° C.)” value (pH 7.0, day 21, 5° C.) of the same molecule?
A: 90.2 ± 0.3%

Q: And the “Purity(%) at day 21 (25° C.)” value (pH 7.0, day 21, 25° C.)?
A: 59.7 ± 0.3%

Q: And the “Purity(%) at day 21 (40° C.)” value (pH 7.0, day 21, 40° C.)?
A: 11.2 ± 0.4%

Q: And the “Purity (%) at day 21 (60° C.)” value (pH 7.0, day 21, 60° C.)?
A: 0%

Q: What about the “Purity(%) at day 0” value (pH 8.0, day 0) of the same molecule?
A: 97.7 ± 0.3%

Q: What about the “Purity(%) at day 21 (5° C.)” value (pH 8.0, day 21, 5° C.) of the same molecule?
A: 78.5 ± 0.2%

Q: And the “Purity(%) at day 21 (25° C.)” value (pH 8.0, day 21, 25° C.)?
A: 47.9 ± 0.3%

Q: What about the “Purity(%) at day 21 (40° C.)” value (pH 8.0, day 21, 40° C.) of the same molecule?
A: 0%

Q: And the “Purity (%) at day 21 (60° C.)” value (pH 8.0, day 21, 60° C.)?
A: 0%
